This note sets out measurements from ChEMBL document CHEMBL1126738, “(3SR,4aRS,6RS,8aRS)-6-[2-(1H-tetrazol-5-yl)ethyl]decahydroisoquinoline-3 - carboxylic acid: a structurally novel, systemically active, competitive AMPA receptor antagonist” (J Med Chem, 1993).

The assay concerns the target Glutamate [NMDA] receptor. Description: Inhibitory activity against NMDA receptor using [3H]-CGS- 19755 as radioligand. It is filed as protein-complex assay.

Regarding `O=C(O)[C@@H]1C[C@H]2C[C@@H](CCc3nn[nH]n3)CC[C@H]2CN1` [TEZAMPANEL ANHYDROUS], the half-maximal inhibitory concentration (IC50) amounted to 12.1 µM.
